Measurements taken from patent publication US10793533B2, “Dimeric contrast agents” (BRACCO IMAGING S.P.A., priority 2016, dated 2020).

assay: Relaxometric properties: longitudinal relaxivity r1p in human plasma; assay type: physicochemical; conditions: 0.47 T (20 MHz), expressed per mM gadolinium
Procedure: The relaxometric properties of some representative complex compounds according to the invention have been determined at different magnetic field strengths, e.g. including 0.47 and 1.41 T, at 37° C., in human plasma and compared with relaxivity values measured, at the same conditions, for some Gd-complex of the market having an analogous cyclic coordination cage.
The longitudinal water proton relaxation rate (R1=1/T1) was measured at 0.47 T with a Minispec MQ-20 spectrometer (Bruker Biospin, Germany) operating at a proton Larmor frequency of 20 MHz; MR experiments at 1.41 T were performed using a Minispec MQ-60 spectrometer (Bruker Biospin, Germany) operating at a proton Larmor frequency of 60 MHz.
All test articles were used as supplied and diluted in the selected medium (human plasma) by weighting the required amount of paramagnetic chelated complex to get a starting solution of 5 or 10 mM concentration in gadolinium.
Relaxivity Measurements Five different concentration samples (0.1, 0.25, 0.5, 0.75 and 1 mM in gadolinium) for each medium have been prepared by further dilution of the starting 5 or 10 mM solution.
Relaxivity measurements were performed at 0.47 T and 1.41 T at a preset temperature sample of 37° C., kept constant by means of a thermostatic bath connected to the sample holder of the spectrometer. The five sample solutions have been preliminary pre-heated at 37° C. in an external thermostatic bath and then left 10 minutes inside the internal bath to assure the stabilization of the temperature. Longitudinal relaxation time T1 was measured by means of a standard inversion recovery sequence, where the inversion time (TI) was varied from 10 ms to at least 5 times T1 in 15 steps. Statistical analysis (mono-exponential fitting for T1 measurement, linear fitting for the evaluation of longitudinal relaxivity) was performed by Mathematica® (Wolfram, USA). Errors on the estimated parameters were evaluated by the fitting procedure.
The relaxivity values r1p of some representative compounds according to the invention, obtained in human plasma at 37° C., are summarized in the following Table A, together with the structure of tested compounds and the strength of the applied magnetic field (in T), and compared with corresponding values measured for two commercial contrast agents in clinical practice having a macrocyclic chelating cage.

SMILES | r1p at 0.47 T 37° C., human plasma
O=C(O)CN1CCN(CC(=O)O)CCN(CC(O)CN(CCOCCOCCO)CC(O)CN2CCN(CC(=O)O)CCN(CC(=O)O)CCN(CC(=O)O)CC2)CCN(CC(=O)O)CC1 (stereo not drawn) | 10.9 mM⁻¹ s⁻¹
COCCOCCOCCOCCN(CC(O)CN1CCN(CC(=O)O)CCN(CC(=O)O)CCN(CC(=O)O)CC1)CC(O)CN1CCN(CC(=O)O)CCN(CC(=O)O)CCN(CC(=O)O)CC1 (stereo not drawn) | 10.6 mM⁻¹ s⁻¹
O=C(O)CN1CCN(CC(=O)O)CCN(CC(O)CN(CC(O)CN2CCN(CC(=O)O)CCN(CC(=O)O)CCN(CC(=O)O)CC2)C(COCCOCCO)COCCOCCO)CCN(CC(=O)O)CC1 (stereo not drawn) | 10.1 mM⁻¹ s⁻¹
CC(O)CN1CCN(CC(=O)O)CCN(CC(=O)O)CCN(CC(=O)O)CC1 (stereo not drawn) (Gd complex, metal not drawn) [ProHance, reference compound] | 4.9 mM⁻¹ s⁻¹
COCCOCCOCCN(CCN(CCOCCOCCOC)CC(O)CN1CCN(CC(=O)O)CCN(CC(=O)O)CCN(CC(=O)O)CC1)CC(O)CN1CCN(CC(=O)O)CCN(CC(=O)O)CCN(CC(=O)O)CC1 (stereo not drawn) [Chelate Complex 9] | 12.1 mM⁻¹ s⁻¹
O=C(O)CN1CCN(CC(=O)O)CCN(CC(=O)O)CCN(CC(=O)O)CC1 [reference compound] | 4.5 mM⁻¹ s⁻¹

same assay, conditions: 1.41 T (60 MHz), expressed per mM gadolinium

SMILES | r1p at 1.41 T 37° C., human plasma
O=C(O)CN1CCN(CC(=O)O)CCN(CC(O)CN(CCOCCOCCO)CC(O)CN2CCN(CC(=O)O)CCN(CC(=O)O)CCN(CC(=O)O)CC2)CCN(CC(=O)O)CC1 (stereo not drawn) | 10.4 mM⁻¹ s⁻¹
COCCOCCOCCOCCN(CC(O)CN1CCN(CC(=O)O)CCN(CC(=O)O)CCN(CC(=O)O)CC1)CC(O)CN1CCN(CC(=O)O)CCN(CC(=O)O)CCN(CC(=O)O)CC1 (stereo not drawn) | 10.3 mM⁻¹ s⁻¹
O=C(O)CN1CCN(CC(=O)O)CCN(CC(O)CN(CC(O)CN2CCN(CC(=O)O)CCN(CC(=O)O)CCN(CC(=O)O)CC2)C(COCCOCCO)COCCOCCO)CCN(CC(=O)O)CC1 (stereo not drawn) | 9.8 mM⁻¹ s⁻¹
CC(O)CN1CCN(CC(=O)O)CCN(CC(=O)O)CCN(CC(=O)O)CC1 (stereo not drawn) (Gd complex, metal not drawn) [ProHance, reference compound] | 4.15 mM⁻¹ s⁻¹
COCCOCCOCCN(CCN(CCOCCOCCOC)CC(O)CN1CCN(CC(=O)O)CCN(CC(=O)O)CCN(CC(=O)O)CC1)CC(O)CN1CCN(CC(=O)O)CCN(CC(=O)O)CCN(CC(=O)O)CC1 (stereo not drawn) [Chelate Complex 9] | 11.5 mM⁻¹ s⁻¹
O=C(O)CN1CCN(CC(=O)O)CCN(CC(=O)O)CCN(CC(=O)O)CC1 [reference compound] | 3.6 mM⁻¹ s⁻¹
